Data published in paper PMC3537848 (Cancer research, 2012).
Substitutions are numbered along the chain they refer to. pIC50: −log10 of the molar value.

What was measured:
[1] = target: T1, Retinoid X receptor-α (RXRα) (Homo sapiens, UniProt P19793); test: Gal4-RXRα-LBD luciferase reporter in CV-1 cells; type: cell-based
T1 sequence (P19793 198-462): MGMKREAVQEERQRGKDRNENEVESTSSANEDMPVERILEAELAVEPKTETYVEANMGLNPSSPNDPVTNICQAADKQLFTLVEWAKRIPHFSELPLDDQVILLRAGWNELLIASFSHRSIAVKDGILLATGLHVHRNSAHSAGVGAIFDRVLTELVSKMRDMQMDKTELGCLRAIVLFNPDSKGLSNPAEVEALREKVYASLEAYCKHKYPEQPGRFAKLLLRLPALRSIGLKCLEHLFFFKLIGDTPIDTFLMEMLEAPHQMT

[2] = target: T2, Retinoid X receptor-α (RXRα) (Homo sapiens, UniProt P19793, R316E); test: Gal4 luciferase reporter in CV-1 cells; type: cell-based
T2 sequence (P19793 198-462 R316E): T1 sequence (P19793 198-462) with R119E

[3] = target: T3, Retinoid X receptor-α (RXRα) (Homo sapiens, UniProt P19793); test: radioligand competition with [3H]-9-cis-RA; type: binding
T3 sequence (P19793 223-462 limits assumed): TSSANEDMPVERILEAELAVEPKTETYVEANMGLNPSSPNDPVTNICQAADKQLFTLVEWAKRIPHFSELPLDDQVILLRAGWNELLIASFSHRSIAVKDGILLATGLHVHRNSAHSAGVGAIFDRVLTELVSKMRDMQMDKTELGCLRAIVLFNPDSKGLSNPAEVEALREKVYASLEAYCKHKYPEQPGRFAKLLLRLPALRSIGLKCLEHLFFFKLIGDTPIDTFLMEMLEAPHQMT

[4] = target: T2, Retinoid X receptor-α (RXRα); test: Gal4 luciferase reporter in CV-1 cells, antagonism of CD3254; type: cell-based

`Cc1cc2c(cc1-c1cc(/C=C/C(=O)O)ccc1O)C(C)(C)CCC2(C)C` [CD3254] was tested, and the “Gal4-RXRα-LBD luciferase reporter in CV-1 cells (agonist)” value [1] was “CD3254 strongly induced Gal4-RXRα/LBD activity, which was comparable to that induced by 9-cis-RA” and the “Gal4 luciferase reporter in CV-1 cells (agonist)” value [2] was “CD3254 could still activate the RXRα/R316E mutant”.

In the case of `CC(C)=CCC/C(C)=C/Cc1c(O)c(O)cc2c(=O)c3c(O)c(CC=C(C)C)c(O)cc3oc12` [CF31, 1,3,6,7-tetrahydroxy-2-(3-methyl-2-butenyl)-5-(3,7-dimethyl-2,6-octadienyl)xanthone], the pIC50 [3] was 5.02 and the “Gal4 luciferase reporter in CV-1 cells, antagonism of CD3254” value [4] was “CD3254-induced reporter activity was potently inhibited by CF31 in a dose dependent manner (Fig. 2C)”.
